# Reference: patent US20260191933A1, “PHARMACEUTICAL COMBINATIONS AND USES THEREOF” (The University of Melbourne, priority 2022, published 2026)
# Columns and labels:
# [1] = test system: insulin induced p-AKT signalling in the ARC; experiment: I.C.V. fluorosamine: insulin-induced p-AKT in the ARC; assay type: in vivo, C57BL/6J mice; conditions: following 10 days I.C.V. treatment
# Method: (§1) Mice were injected intraperitoneally with vehicle (PBS) or insulin (3 mU/g, i.p., Actrapid, Nova Nordisk, Denmark) and mice were transcardially perfused (as described above) 15 min with 10% neutral buffered formalin. The brains were post-fixed for 16 h on a rocking platform at RT and then kept for two days in 30% sucrose in PBS to cryoprotect the tissue, before freezing on dry ice. 30 μm sections were cut in the coronal plane throughout the entire rostral-caudal extent of the hypothalamus. Sections were pre-treated for 10 mins in 0.3% glycine, washed in PBS-T and incubated for 10 min in 0.03% SDS. Sections were then blocked in 5% blocking buffer for 1 h at RT and incubated for 48 h with rabbit anti-p-AKT (Ser-473) (1:300; #4060, Cell Signaling Technology, Beverly, MA) in 1% blocking buffer. Sections were then incubated in 5% blocking buffer containing either goat anti-rabbit Alexa Fluor 647 (ab150083, Abcam, Cambridge, UK) or biotinylated goat anti-rabbit (BA-1000, Vector Laboratories, CA, no sodium azide in blocking buffer). […]
# ARC CSPG-ECM = experiment: Intranasal PZ6005 in obese mice: ARC CSPG-ECM expression (WFA immunostaining); assay type: in vivo, C57BL/6J mice; conditions: for ARC neurofibrosis / area and intensity of ARC CSPG-ECM: obese mice, intranasal 14 days, 1 or 5 mg/animal/day
# Method: (§2) All image quantification was performed in Image J (NIH) software (NIH, MA). Raw images underwent background subtraction using a rolling ball algorithm to minimize background and any potential variance in tissue autofluorescence. To quantify area and intensity of the CSPG-ECM within each brain region (ARC, VMH or RSG cortex) images were thresholded and binarized to create a region of interest (ROI) mask of only the CSPG-ECM. For each brain area, CSPG-ECM ROI area (μm^2) and intensity (sum of all pixel intensities within the ROI) was calculated. This process was automated to minimise bias and to account for differences in brain nuclei size across multiple images. Brain nuclei were defined in accordance with the Paxinos and Franklin mouse brain atlas (http://labs.gaidi.ca/mouse-brain-atlas/). The area and intensity of CSPG-ECM within each region was normalised to the respective control.
# diet-induced obese mice [2] = experiment: I.C.V. PZ6005 and/or S.C. liraglutide, 28 days: body weight, adiposity, food intake, energy expenditure; assay type: in vivo, C57BL/6j mice
# Method: (§3) Metabolic measurements were undertaken in the Melbourne Mouse Metabolic Phenotyping Platform (The University of Melbourne, Australia). Glucose tolerance tests were performed on 6 h fasted conscious mice respectively by injecting D-glucose (2 mg/g of lean body mass and 1 mg/g lean mass for db/db and HFHS+STZ mice) into the peritoneal cavity and measuring glucose in tail blood immediately before and at 15, 30, 45, 60, 90 and 120 min after injection using an Accu-Check glucometer (Roche, Germany). The areas under glucose excursion curves were determined and expressed as mmol/l×min. Fasted (12 h fast) plasma insulin or glucose levels were determined using a Rat/Mouse Insulin ELISA (EZRMI-13K, Merck Millipore, CA) or an Accu-Check glucometer respectively. The HOMA-IR was calculated using the equation [(glucose×insulin)/405]. Adiposity was measured using TD-NMR minispec (Bruker Optics Inc., Billerica, MA).
# Mice were acclimated for 24 h and then monitored for 48 h in an environmentally controlled Promethion Metabolic Screening System (Sable Systems International, NV) fitted with indirect open circuit calorimetry, food consumption and activity monitors to measure activity, caloric intake and energy expenditure. Respiratory quotients were calculated as the ratio of CO2 production over O2 consumption respiratory exchange ratio and energy expenditure was calculated using the Weir equation (Kcal h−1=60×(0.003941×VO2+0.001106×VCO2). To account for difference in body mass/composition energy expenditure was analysed and adjusted using ANCOVA using scripts available at the National Mouse Metabolic Phenotyping Centers (MMPC, Nashville, TN, USA) Energy Expenditure Analysis Page (https://www.mmpc.org/shared/regression.aspx).
# [3] = test system: GLP-1 receptor signalling (pERK) in the ARC; experiment: I.C.V. PZ6005 and/or S.C. liraglutide: ARC pERK +ve. cells after liraglutide; assay type: in vivo, C57BL/6j mice; conditions: after 28-day treatment; compared to controls and liraglutide alone
# [4] = test system: ARC insulin receptor signalling (pAKT); experiment: I.C.V. PZ6005 and/or S.C. liraglutide: ARC pAKT +ve. cells after insulin; assay type: in vivo, C57BL/6j mice; conditions: after 28-day treatment; compared with liraglutide alone group
# Method: as §1
# [5] = test system: 12-week-HFHS-diet-fed obese mice; experiment: Intranasal PZ6005 in obese mice: I.P. GTT, ITT, fasting glucose; assay type: in vivo, C57BL/6J mice
# Method: as §3
# [6] = test system: 12-week-HFHS-diet-fed obese mice; experiment: Intranasal PZ6005 in obese mice: body weight, tissue-specific adiposity, fat mass; assay type: in vivo, C57BL/6J mice; conditions: for body weight lost at the end of the experiment: day 14
# Method: as §3
# CSPG-ECM (neurofibrosis) = experiment: I.C.V. fluorosamine in obese mice: CSPG-ECM expression (WFA immunostaining); assay type: in vivo, C57BL/6J mice
# Method: as §2
# Under isoflurane anaesthetic 12-week HFHS fed C57BL/6J or AgRP-Cas9 mice were implanted stereotaxically with guide cannulas into the right lateral ventricle (0.2 mm posterior, 1.0 mm lateral from bregma). Guide cannula was positioned 1.3 mm above the injection site (1 mm ventral to the surface of the skull). AgRP-Cas9 mice were treated with either AAV-gScrambled or AAV-gIR and underwent guide cannula placement 7 days post AAV administration. Mice were administered I.C.V. vehicle (ddH2O), fluorosamine (100 μg/animal/day or 250 μgl/animal/day) in a volume of 2 μl/animal and all compounds were delivered approximately 1 h before lights off (7 pm).
# diet-induced obese mice [7] = experiment: I.C.V. PZ6005 and/or S.C. liraglutide: I.P. GTT; assay type: in vivo, C57BL/6j mice; conditions: day 14; 6 hours fasted; compared with the control treatment
# Method: as §3
# [8] = intranasal 1 mg/animal/day, 14 days
# [9] = intranasal 1 mg treatment, 14 days
smiles,measurement,setting,value
"CC(=O)NC1C(OC(C)=O)OC(COC(C)=O)[C@@H](F)C1OC(C)=O (some centres unmarked) [PZ6005, per-O-acetylated-4-F-N-acetylglucosamine]",insulin induced p-AKT signalling in the ARC,[1],enhanced
same,CSPG-ECM area lower than the controls,ARC CSPG-ECM; [8],13.54±1.03%
same,CSPG-ECM intensity decreased by,ARC CSPG-ECM; [8],15.94±7.17%
same,CSPG-ECM intensity reduced by,"ARC CSPG-ECM; intranasal 5 mg/animal/day (highest dose), 14 days",30.16±1.52%
same,CSPG-ECM area lower than the controls,"ARC CSPG-ECM; intranasal 5 mg/animal/day, 14 days",13.59±4.09%
same,ARC neurofibrosis / area and intensity of ARC CSPG-ECM,ARC CSPG-ECM,robustly diminished
same,ARC neurofibrosis / area and intensity of ARC CSPG-ECM,ARC CSPG-ECM; listed as fluorosamine,successfully attenuated
same,"mass of ingWAT, epiWAT and the liver","diet-induced obese mice [2]; 28-day treatment, compared with control littermates",lower mass
same,difference in fat mass between the mid- and post-treatment,diet-induced obese mice [2]; 14 days after last PZ6005 dose,no significant difference
same,energy expenditure and oxygen consumption,"diet-induced obese mice [2]; Day 8-Day 11 of the treatment, day and night",consumed more energy
same,mean percentage change in weight,"diet-induced obese mice [2]; day 28, PZ6005 100 μg/animal I.C.V. every other day first 14 days, liraglutide 200 μg/kg/day S.C. 28 days",−13.02±1.15%
same,ARC pERK +ve. cells,[3],markedly increased
same,ARC pAKT +ve. cells,[4],more ARC pAKT +ve. cells
same,fasting (12 hrs) glucose level,[5]; both doses of intranasal treatment,Reduction
same,insulin sensitivity (I.P. ITT),"[5]; intranasal 1 or 5 mg/animal/day, 4 hrs fasting",enhanced insulin sensitivity
same,glucose tolerance (I.P. GTT),"[5]; intranasal 1 or 5 mg/animal/day, 6 hrs fasting, vs control littermates",better glucose tolerance
same,whole-body metabolic improvements observed with intracerebroventricular delivery,"[6]; diet-induced obese mice, intranasal 14 days",recapitulated
same,"mass of epiWAT, BAT and liver",[6]; [9],decreased
same,"post-treatment fat mass decreased by, compared to the pre-treatment mass",[6]; [9],12.59±2.29%
same,body weight lost at the end of the experiment,[6]; intranasal 1 mg treatment,16.32±1.41%
same,day from which weight was robustly decreased,[6]; intranasal 1 mg/animal/day,7 days
same,"post-treatment fat mass diminished by, compared to the pre-treatment mass","[6]; intranasal 5 mg treatment, 14 days",23.21±9.27%
same,day from which weight was robustly decreased,[6]; intranasal 5 mg/animal/day,3 days
same,body weight lost at the end of the experiment,[6]; intranasal highest dose (5 mg),6.36±0.88%
same,tissue mass,"[6]; intranasal highest dose, 14 days",remarkedly reduced
same,CSPG-ECM expression in the habenula,"CSPG-ECM (neurofibrosis); I.C.V., at the highest dose",only partially attenuated
same,neurofibrosis within the ARC (WFA immunostaining),"CSPG-ECM (neurofibrosis); obese mice, I.C.V. daily for 10 days",significantly attenuated
same,CSPG-ECM in other brain areas such as the RSG cortex,"CSPG-ECM (neurofibrosis); obese mice, I.C.V. for 10 days",did not reduce
same,glucose excursion (I.P. GTT),diet-induced obese mice [7],reduced glucose excursion
